pIC50: −log10 of the molar value. *1 amine or outer side, *2 acyl side, *3 side chain or, on linkers, in order; H or OH if unused. Where a SMILES comes first, the peptide text is derived from it. Bridges are numbered along the chain shown (N, C = ends). [ ]: non-standard residue; d: D form. The star is where a group is joined. ξ: configuration not given here. hPhe(3-Cl-4-CF3) = N[C@@H](CCc1ccc(C(F)(F)F)c(Cl)c1)C(=O)O; X31 = C=CCN([C@@H](Cc1ccccc1)C(=O)[*:2])[*:1]; NMeGly(cPent) = CN[C@H](C(=O)O)C1CCCC1; NMeNle(5-ene) = C=CCC[C@H](NC)C(=O)O; dIle(3ξ) = CCC(C)[C@@H](N)C(=O)O; NMeD = CN[C@@H](CC(=O)O)C(=O)O; NMeL = CN[C@@H](CC(C)C)C(=O)O; Morpholide = C1CN(*)CCO1; Ac5c = NC1(C(=O)O)CCCC1; Sar = CNCC(=O)O
Key:
[1] = molecular target: GDP-bound NRAS wild-type protein (Homo sapiens, UniProt P01111); assay: Binding to NRAS by surface plasmon resonance (SPR), KD and KD ratio to KRAS; conditions: ratio of the KD value with respect to GDP-bound NRAS wild-type protein to the KD value with respect to KRAS
Sequence of GDP-bound NRAS wild-type protein (P01111 whole entry): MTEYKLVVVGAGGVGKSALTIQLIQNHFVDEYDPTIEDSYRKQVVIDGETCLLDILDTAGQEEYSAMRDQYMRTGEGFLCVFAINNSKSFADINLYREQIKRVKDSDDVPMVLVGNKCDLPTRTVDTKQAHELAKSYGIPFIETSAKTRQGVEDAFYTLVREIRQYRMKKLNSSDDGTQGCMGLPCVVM
Method in brief: (§1)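 GDP-bound biotin-Avi RAS captured at ~100–300 RU, 30°C, pH 7.4 HBS containing 10 µM GDP, 10 mM MgCl2, 1 mM DTT, 0.01% Tween 20 and 4% DMSO. KD by 1:1 fitting.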

[2] = molecular target: HRAS wild-type protein (Homo sapiens, UniProt P01112); assay: Binding to HRAS by surface plasmon resonance (SPR), KD and KD ratio to KRAS; conditions: ratio of the KD value with respect to HRAS wild-type protein to the KD value with respect to KRAS
Sequence of HRAS wild-type protein (P01112 whole entry): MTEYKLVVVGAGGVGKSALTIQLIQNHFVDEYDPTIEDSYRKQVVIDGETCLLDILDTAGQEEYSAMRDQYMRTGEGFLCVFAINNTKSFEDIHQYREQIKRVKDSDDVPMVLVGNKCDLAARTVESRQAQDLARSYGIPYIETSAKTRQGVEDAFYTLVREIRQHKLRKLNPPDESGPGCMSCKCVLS
Method in brief: as §1

[3] = tested on: human lung cancer strain NCI-H441; format: cell-based
Method in brief: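 Readout: […] after the ATP-based reagent. Compound: serial dilutions in dimethyl sulfoxide.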

Structure (SMILES)	NRAS /KRAS [1]	HRAS /KRAS [2]	pIC50 [3]
CC[C@H](C)[C@@H]1NC(=O)[C@H](CC(C)C)NC(=O)C[C@@H](C(=O)N2CCOCC2)N(C)C(=O)[C@H](C2CCCC2)N(C)C(=O)C2(CCCC2)NC(=O)[C@@H]2CCCN2C(=O)[C@H](CCc2cc(F)c(C(F)(F)F)c(F)c2)NC(=O)CN(C)C(=O)[C@H](Cc2ccc(C(F)(F)F)cc2)N2CCCC[C@@H](C2=O)N(C)C(=O)CN(C)C1=O [PP0590]	C (A compound having a KD ratio of 0.1 or more and less than 3 is denoted as C)	B (a compound having 3 or more and less than 10 is denoted as B)	7.68
CC[C@H](C)[C@@H]1NC(=O)[C@H](CC(F)(F)F)N(C)C(=O)C[C@@H](C(=O)N2CCOCC2)N(C)C(=O)[C@H](C2CCCC2)N(C)C(=O)C2(CCCC2)NC(=O)[C@@H]2CCCN2C(=O)[C@H](CCc2cc(F)c(C(F)(F)F)c(F)c2)NC(=O)CN(C)C(=O)[C@H](Cc2ccc(C(F)(F)F)cc2)N2CCCC[C@@H](C2=O)N(C)C(=O)CN(C)C1=O [PP0594]	C (A compound having a KD ratio of 0.1 or more and less than 3 is denoted as C)	B (a compound having 3 or more and less than 10 is denoted as B)	8.60
CC(C)C[C@H]1C(=O)N[C@@H](C2CCC2)C(=O)N(C)CC(=O)N(C)[C@H]2CCCCN(C2=O)[C@@H](Cc2ccc(C(F)(F)F)cc2)C(=O)N(C)CC(=O)N[C@@H](CCc2cc(F)c(C(F)(F)F)c(F)c2)C(=O)N2CCC[C@H]2C(=O)NC2(CCCC2)C(=O)N(C)[C@@H](C2CCCC2)C(=O)N(C)[C@H](C(=O)N2CCOCC2)CC(=O)N1C [PP0596]	B (a compound having 3 or more and less than 10 is denoted as B)	B (a compound having 3 or more and less than 10 is denoted as B)	8.08
CCC(CC)[C@@H]1NC(=O)[C@H](CC(C)C)N(C)C(=O)C[C@@H](C(=O)N2CCOCC2)N(C)C(=O)[C@H](C2CCCC2)N(C)C(=O)C2(CCCC2)NC(=O)[C@@H]2CCCN2C(=O)[C@H](CCc2cc(F)c(C(F)(F)F)c(F)c2)NC(=O)CN(C)C(=O)[C@H](Cc2ccc(C(F)(F)F)cc2)N2CCCC[C@@H](C2=O)N(C)C(=O)CN(C)C1=O [PP0597]	B (a compound having 3 or more and less than 10 is denoted as B)	B (a compound having 3 or more and less than 10 is denoted as B)	7.74
C=CCC[C@H]1C(=O)N(CC=C)[C@@H](Cc2ccccc2)C(=O)N(C)CC(=O)N[C@@H](CCc2ccc(C(F)(F)F)c(Cl)c2)C(=O)N2CCC[C@H]2C(=O)NC2(CCCC2)C(=O)N(C)[C@@H](C2CCCC2)C(=O)N(C)[C@H](C(=O)N2CCOCC2)CC(=O)N(C)[C@@H](CC(C)C)C(=O)N[C@H](C(C)CC)C(=O)N(C)CC(=O)N1C (stereo partly drawn) [PP0599] ([NMeL][dIle(3ξ)][Sar][NMeNle(5-ene)][X31][Sar][hPhe(3-Cl-4-CF3)]P[Ac5c][NMeGly(cPent)][NMeD]-Morpholide; lactam N-11)	C (A compound having a KD ratio of 0.1 or more and less than 3 is denoted as C)	B (a compound having 3 or more and less than 10 is denoted as B)	5.55
CC[C@H](C)[C@@H]1NC(=O)[C@H](CC(C)C)N(C)C(=O)C[C@@H](C(=O)N2CCOCC2)N(C)C(=O)[C@H](C2CCCC2)N(C)C(=O)C2(CCCC2)NC(=O)[C@@H]2CCCN2C(=O)[C@H](CCc2ccc(C(F)(F)F)c(Cl)c2)NC(=O)CN(C)C(=O)[C@H](Cc2ccc(Cl)cc2)N2C/C=C\CC[C@@H](C2=O)N(C)C(=O)CN(C)C1=O [PP0608]	C (A compound having a KD ratio of 0.1 or more and less than 3 is denoted as C)	B (a compound having 3 or more and less than 10 is denoted as B)	6.60
CC[C@H](C)[C@@H]1NC(=O)[C@H](CC(C)C)N(C)C(=O)C[C@@H](C(=O)N2CCOCC2)N(C)C(=O)[C@H](C2CCCC2)N(C)C(=O)C2(CCCC2)NC(=O)[C@@H]2CCCN2C(=O)[C@H](CCc2ccc(C(F)(F)F)c(Cl)c2)NC(=O)CN(C)C(=O)[C@H](Cc2ccc(OC(F)(F)F)cc2)N2C/C=C\CC[C@@H](C2=O)N(C)C(=O)CN(C)C1=O [PP0610]	B (a compound having 3 or more and less than 10 is denoted as B)	B (a compound having 3 or more and less than 10 is denoted as B)	6.16
CC[C@H](C)[C@@H]1NC(=O)[C@H](CC(C)C)N(C)C(=O)C[C@@H](C(=O)N2CCOCC2)N(C)C(=O)[C@H](C2CCCC2)N(C)C(=O)C2(CCCC2)NC(=O)[C@@H]2CCCN2C(=O)[C@H](CCc2ccc(C(F)(F)F)c(Cl)c2)NC(=O)CN(C)C(=O)[C@H](Cc2ccc(F)cc2)N2CCCCC[C@@H](C2=O)N(C)C(=O)CN(C)C1=O [PP0612]	B (a compound having 3 or more and less than 10 is denoted as B)	B (a compound having 3 or more and less than 10 is denoted as B)	7.36
CC[C@H](C)[C@@H]1NC(=O)[C@H](CC(C)C)N(C)C(=O)C[C@@H](C(=O)N2CCOCC2)N(C)C(=O)[C@H](C2CCCC2)N(C)C(=O)C2(CCCC2)NC(=O)[C@@H]2CCCN2C(=O)[C@H](CCc2ccc(C(F)(F)F)c(Cl)c2)NC(=O)CN(C)C(=O)[C@H](Cc2ccc(Cl)cc2)N2CCCCC[C@@H](C2=O)N(C)C(=O)CN(C)C1=O [PP0613]	B (a compound having 3 or more and less than 10 is denoted as B)	B (a compound having 3 or more and less than 10 is denoted as B)	7.37
CC[C@H](C)[C@@H]1NC(=O)[C@H](CC(C)C)N(C)C(=O)C[C@@H](C(=O)N2CCOCC2)N(C)C(=O)[C@H](C2CCCC2)N(C)C(=O)C2(CCCC2)NC(=O)[C@@H]2CCCN2C(=O)[C@H](CCc2ccc(C(F)(F)F)c(Cl)c2)NC(=O)CN(C)C(=O)[C@H](Cc2ccc(OC)cc2)N2CCCCC[C@@H](C2=O)N(C)C(=O)CN(C)C1=O [PP0614]	B (a compound having 3 or more and less than 10 is denoted as B)	B (a compound having 3 or more and less than 10 is denoted as B)	6.96
CC[C@H](C)[C@@H]1NC(=O)[C@H](CC(C)C)N(C)C(=O)C[C@@H](C(=O)N2CCOCC2)N(C)C(=O)[C@H](C2CCCC2)N(C)C(=O)C2(CCCC2)NC(=O)[C@@H]2CCCN2C(=O)[C@H](CCc2ccc(C(F)(F)F)c(Cl)c2)NC(=O)CN(C)C(=O)[C@H](Cc2ccc(OC(F)(F)F)cc2)N2CCCCC[C@@H](C2=O)N(C)C(=O)CN(C)C1=O [PP0615]	B (a compound having 3 or more and less than 10 is denoted as B)	B (a compound having 3 or more and less than 10 is denoted as B)	6.66
CC[C@H](C)[C@@H]1NC(=O)[C@H](CC(C)C)N(C)C(=O)C[C@@H](C(=O)N(C)C)N(C)C(=O)[C@H](C2CCCC2)N(C)C(=O)C2(CCCC2)NC(=O)[C@@H]2CCCN2C(=O)[C@H](CCc2ccc(C(F)(F)F)c(Cl)c2)NC(=O)CN(C)C(=O)[C@H](Cc2ccc(C)cc2)N2CC/C=C(/C)C[C@@H](C2=O)N(C)C(=O)CN(C)C1=O [PP0616]	B (a compound having 3 or more and less than 10 is denoted as B)	B (a compound having 3 or more and less than 10 is denoted as B)	7.13
CC[C@H](C)[C@@H]1NC(=O)[C@@H](CC(C)C)N(C)C(=O)C[C@@H](C(=O)N(C)C)N(C)C(=O)[C@@H](C2CCCC2)N(C)C(=O)C2(CCCC2)NC(=O)[C@@H]2CCCN2C(=O)[C@H](CCc2ccc(C(F)(F)F)c(Cl)c2)NC(=O)CN(C)C(=O)[C@@H](Cc2ccc(C)cc2)N2CC/C=C\CCN(CC2=O)C(=O)CN(C)C1=O [PP0618]	C (A compound having a KD ratio of 0.1 or more and less than 3 is denoted as C)	C (A compound having a KD ratio of 0.1 or more and less than 3 is denoted as C)	7.10
CC[C@H](C)[C@@H]1NC(=O)[C@H](CC(C)C)N(C)C(=O)C[C@@H](C(=O)N(C)C)N(C)C(=O)[C@H](C2CCCC2)N(C)C(=O)C2(CCCC2)NC(=O)[C@@H]2CCCN2C(=O)[C@H](CCc2ccc(C(F)(F)F)c(Cl)c2)NC(=O)CN(C)C(=O)[C@H](Cc2ccc(C(F)(F)F)cc2)N2CC/C=C\COC[C@@H](C2=O)N(C)C(=O)CN(C)C1=O [PP0622]	B (a compound having 3 or more and less than 10 is denoted as B)	B (a compound having 3 or more and less than 10 is denoted as B)	6.48
CC[C@H](C)[C@@H]1NC(=O)[C@H](CC(C)C)N(C)C(=O)C[C@@H](C(=O)N(C)C)N(C)C(=O)[C@H](C2CCCC2)N(C)C(=O)C2(CCCC2)NC(=O)[C@@H]2CCCN2C(=O)[C@H](CCc2ccc(C(F)(F)F)c(Cl)c2)NC(=O)CN(C)C(=O)[C@H](Cc2ccc(C)cc2)N2CC=CCOC[C@@H](C2=O)N(C)C(=O)CN(C)C1=O [PP0627]	C (A compound having a KD ratio of 0.1 or more and less than 3 is denoted as C)	C (A compound having a KD ratio of 0.1 or more and less than 3 is denoted as C)	7.01
CCO[C@@H]1C[C@H]2C(=O)NC3(CCC3)C(=O)N(C)[C@@H](C3CCCC3)C(=O)N(CC)[C@H](C(=O)N(C)C)CC(=O)N(C)[C@@H](CC)C(=O)N[C@@H]([C@@H](C)CC)C(=O)N(C)CC(=O)N(C)[C@H]3CCCCCN(C3=O)[C@@H](Cc3ccc(C(F)(F)F)cc3)C(=O)N(C)CC(=O)N[C@@H](CCc3cc(F)c(C(F)(F)F)c(F)c3)C(=O)N2C1 [PP0633]	B (a compound having 3 or more and less than 10 is denoted as B)	B (a compound having 3 or more and less than 10 is denoted as B)	6.93
